Assay results from US11491155B2, “Salt of a pyrimido[6,1-A]isoquinolin-4-one compound” (VERONA PHARMA PLC, priority 2015, dated 2022).
Where a name gives a salt, the structure may show the parent alone.

What was measured:
Format in all cases: physicochemical
[1] = Solubility of RPL554 salts in saline solutions, water and aqueous buffer solutions at 25° C. (HPLC); settings: for Solubility as RPL554 (mg/ml) in 0.7 w/w % Saline / Solubility as RPL554 (mg/ml) in 0.9 w/w % Saline / Solubility as RPL554 (mg/ml) in 1.1 w/w % Saline / Solubility as RPL554 (mg/ml) in Water: 24 hours; for Solubility as RPL554 (mg/ml) in Water: deionised water
In short: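 Salts or free base (ca 50 mg) suspended in 1 ml of buffered 0.9% saline (pH 3.5–6.5), 0.7–1.1% saline or deionised water, agitated 24 h at 25° C. Filtrates analysed by HPLC with single-point calibration; solubility expressed as RPL554 free base, not salt.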

[2] = Intrinsic dissolution of compressed tablet, pH 7.0, 37° C. (Sirius inForm); settings: for Mass of salt (μg) dissolved after 2 hours, Average / Mass of salt (μg) dissolved after 2 hours, Test 1 / Mass of salt (μg) dissolved after 2 hours, Test 2: pH 7.0, 0.15 M NaCl, 37° C.
In short: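 Compressed 3 mm tablet (~10 mg, 100 kg load), one face exposed, dissolved in pH 7.0 aqueous medium (0.15 M NaCl, 0.01 M acetate/phosphate buffer) at 37° C., stirred at 100 rpm for 2 h. UV absorbance (<1.3) converted to dissolved weight via pH-dependent molar extinction coefficients.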

[3] = Primary particle size analysis by laser light diffraction (Mastersizer 2000); settings: micronised, mean n=3
Method: A Mastersizer 2000 fitted with a Scirocco 2000 dry powder dispersion unit (Malvern Instruments Ltd, UK) was used to analyse the primary particle size of the micronised RPL554 and salt variants. The salts (50 mg) were automatically sampled via a vibrating feed control at a feeder rate of 60% and dispersed in compressed air at a pressure of 3 bar.

[4] = Solubility of RPL554 and salts in pMDI propellant systems
In short: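 Ten actuations from each pMDI, three replicates per formulation, were filtered through a 0.20 μm filter into a vial cooled in dry ice/acetone, with about 10 s shaking between shots. The filtrate was evaporated to dryness, the residue recovered in 1 mL recovery solution and quantified by HPLC. The percent solubilised was taken against the starting RPL554 mass in the canister, computed from theoretical molecular weights of free base and salts.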

[5] = RPL554 content and content uniformity of 1% w/w lactose powder blends; settings: for Measured Blend Content (% Theoretical): 1% w/w RPL554 variant: lactose powder blend, expressed as RPL554 base; for **Adjusted RPL554 Content per capsule: per 20 mg capsule of 1% w/w lactose blend, adjusted for measured blend content (% theoretical), as RPL554 base
In short: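 RPL554 free base or salt was sieved (38 μm) with some lactose, mortar-mixed with the rest, and Turbula-blended for 10 min at 46 rpm to give 1% w/w blends. For uniformity, ~20 mg samples from each blend were diluted to 10 mL, sonicated for 3 min and assayed by HPLC.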

[6] = Aerosol performance of DPI formulations (Cyclohaler, NGI); settings: for †Measured Mass of 1% w/w Blend Delivered per capsule / ††RPL554 Emitted (μg) per capsule (B): Cyclohaler; for †Measured Mass of 1% w/w Blend Delivered per capsule: 5 capsules containing 20 mg powder blend, mass from weight change of capsule-loaded device; for ††RPL554 Emitted (μg) per capsule (B): NGI, mass determined from HPLC analysis of recovered samples; for ††RPL554 Emitted (μg) per capsule (B) / Calculated RPL554 Content (μg) per capsule (A): as RPL554 base; for Calculated RPL554 Content (μg) per capsule (A): calculated from delivered blend mass and measured blend content
In short: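 Capsules held 20 mg of 1% w/w RPL554 free base or salt:lactose blend (200 μg salt, not adjusted for molecular weight). Fired from Cyclohaler at 90 L/min for 2.7 s into NGI with pre-separator, 5 capsules per formulation; drug recovered from device, induction port and stages to derive ED, FPD, FPF.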

[7] = listed as ethane-1,2-disulfonate salt
[8] = HFA 227: 10% Ethanol: 0.1% Tween
[9] = in HFA 134, listed as Ethane-1,2-disulfonate hemi-salt
[10] = in HFA 134 with Ethanol/Tween, listed as Ethane-1,2-disulfonate hemi-salt
[11] = listed as hydrochloride salt, hydrochloride
[12] = in HFA 134 with Ethanol/Tween, hydrochloride

COc1cc2c(cc1OC)-c1c/c(=N\c3c(C)cc(C)cc3C)n(CCNC(N)=O)c(=O)n1CC2 [Ethane-1,2-disulfonate, RPL554 ethane-1,2-disulfonate]
Solubility as RPL554 (mg/ml) in 0.7 w/w % Saline [1]: 4.79 mg/mL | Mass of salt (μg) dissolved after 2 hours, Average [2, 7]: 28.0 µg | Mass of salt (μg) dissolved after 2 hours, Test 1 [2, 7]: 21.1 µg | Mass of salt (μg) dissolved after 2 hours, Test 2 [2, 7]: 34.9 µg | D (0.1) (μm) [3]: 0.52 μm | D (0.5) (μm) [3]: 1.25 μm | D (0.9) (μm) [3]: 2.78 μm | Estimated Solubilised RPL554 μg per 50 μL actuation [4, 8]: 0.11 µg | Solubility RPL554 [4, 8]: 1.69 µg/g | Estimated RPL554 solubilised (%) ([4]; HFA 227: 10% Ethanol: 0.1% Tween, listed as Ethane-1,2-disulfonate hemi-salt): 0.07% | Solubility RPL554 (μg/g) ([4]; in HFA 134, BLQ = below limit of quantitation (0.06 μg/mL), listed as Ethane-1,2-disulfonate hemi-salt): BLQ | Calculated RPL554 solubilised (%) [4, 9]: BLQ | Calculated Solubilised RPL554 μg per 50 μL actuation [4, 9]: BLQ | Solubility RPL554 ([4]; in HFA 134 with Ethanol/Tween): 5 µg/g | Estimated RPL554 solubilised (%) [4, 10]: 0.20% | Estimated Solubilised RPL554 μg per 50 μL actuation [4, 10]: 0.34 µg | Solubility RPL554 [4, 10]: 5.13 µg/g | Calculated RPL554 solubilised (%) ([4]; in HFA 227): BLQ | Calculated Solubilised RPL554 μg per 50 μL actuation ([4]; in HFA 227): BLQ | Solubility RPL554 (μg/g) ([4]; in HFA 227): BLQ | Measured Blend Content (% Theoretical) [5]: 80.18 % Theoretical | **Adjusted RPL554 Content per capsule [5]: 133.73 µg | †Measured Mass of 1% w/w Blend Delivered per capsule [6]: 19.90 mg | ††RPL554 Emitted (μg) per capsule (B) [6]: 87.91 µg | Calculated RPL554 Content (μg) per capsule (A) [6]: 133.06 µg

COc1cc2c(cc1OC)-c1c/c(=N\c3c(C)cc(C)cc3C)n(CCNC(N)=O)c(=O)n1CC2 [Hydrochloride, RPL554 hydrochloride]
Solubility as RPL554 (mg/ml) in 0.7 w/w % Saline ([1]; hydrochloride): 2.85 mg/mL | Solubility as RPL554 (mg/ml) in 0.9 w/w % Saline ([1]; hydrochloride): 1.93 mg/mL | Solubility as RPL554 (mg/ml) in 1.1 w/w % Saline ([1]; hydrochloride): 2.48 mg/mL | Solubility as RPL554 (mg/ml) in Water ([1]; hydrochloride): 12.66 mg/mL | solubility at 24 h ([1]; phosphate buffer in 0.9% w/w saline, 25 °C, pH 6.5, aqueous buffer, thermodynamic from solid, in saline 0.9% w/w, read-out: Solubility as RPL554 (mg/ml) in buffer solution pH 6.5, Phosphate): 0.02 mg/mL | Mass of salt (μg) dissolved after 2 hours, Average [2, 11]: 35.6 µg | Mass of salt (μg) dissolved after 2 hours, Test 1 [2, 11]: 31.7 µg | Mass of salt (μg) dissolved after 2 hours, Test 2 [2, 11]: 39.4 µg | D (0.1) (μm) ([3]; hydrochloride): 0.53 μm | D (0.5) (μm) ([3]; hydrochloride): 1.37 μm | D (0.9) (μm) ([3]; hydrochloride): 3.47 μm | Solubility RPL554 (μg/g) ([4]; in HFA 134, BLQ = below limit of quantitation (0.06 μg/mL), hydrochloride): BLQ | Calculated RPL554 solubilised (%) ([4]; in HFA 134, hydrochloride): BLQ | Calculated Solubilised RPL554 μg per 50 μL actuation ([4]; in HFA 134, hydrochloride): BLQ | Estimated RPL554 solubilised (%) [4, 12]: 5.27% | Estimated Solubilised RPL554 μg per 50 μL actuation [4, 12]: 9.79 µg | Solubility RPL554 [4, 12]: 149.17 µg/g | Calculated RPL554 solubilised (%) ([4]; in HFA 227): BLQ | Calculated Solubilised RPL554 μg per 50 μL actuation ([4]; in HFA 227): BLQ | Solubility RPL554 (μg/g) ([4]; in HFA 227): BLQ | Measured Blend Content (% Theoretical) ([5]; hydrochloride): 84.42 % Theoretical | **Adjusted RPL554 Content per capsule ([5]; hydrochloride): 156.86 µg | †Measured Mass of 1% w/w Blend Delivered per capsule ([6]; hydrochloride): 20.14 mg | ††RPL554 Emitted (μg) per capsule (B) ([6]; hydrochloride): 102.27 µg | Calculated RPL554 Content (μg) per capsule (A) ([6]; hydrochloride): 157.96 µg

COc1cc2c(cc1OC)-c1c/c(=N\c3c(C)cc(C)cc3C)n(CCNC(N)=O)c(=O)n1CC2 [Sulfate, RPL554 sulfate]
Solubility as RPL554 (mg/ml) in 0.7 w/w % Saline [1]: 2.78 mg/mL | Solubility as RPL554 (mg/ml) in 0.9 w/w % Saline [1]: 1.94 mg/mL | Solubility as RPL554 (mg/ml) in 1.1 w/w % Saline [1]: 1.35 mg/mL | Solubility as RPL554 (mg/ml) in Water [1]: 12.11 mg/mL | dissolution compared with free base / other salts ([2]; 2 hour experiments): higher dissolution than the rest of the salts | dissolution behaviour over 24 hours ([2]; 24 hours experiment): did start to precipitate slowly but still remained highly supersaturated even after 24 hrs | maximum pH change (decrease) during dissolution ([2]; nominal start pH 7, listed as sulfate salt): about 0.15 pH units | Mass of salt (μg) dissolved after 2 hours, Average ([2]; listed as sulfate salt): 6205 µg | Mass of salt (μg) dissolved after 2 hours, Test 1 ([2]; listed as sulfate salt): 5910 µg | Mass of salt (μg) dissolved after 2 hours, Test 2 ([2]; listed as sulfate salt): 6500 µg | D (0.1) (μm) [3]: 0.51 μm | D (0.5) (μm) [3]: 1.12 μm | D (0.9) (μm) [3]: 2.30 μm | Calculated RPL554 solubilised (%) ([4]; in HFA 134): BLQ | Calculated Solubilised RPL554 μg per 50 μL actuation ([4]; in HFA 134): BLQ | Solubility RPL554 (μg/g) ([4]; in HFA 134, BLQ = below limit of quantitation (0.06 μg/mL)): BLQ | Estimated RPL554 solubilised (%) ([4]; in HFA 134 with Ethanol/Tween): 2.84% | Estimated Solubilised RPL554 μg per 50 μL actuation ([4]; in HFA 134 with Ethanol/Tween): 4.71 µg | Solubility RPL554 ([4]; in HFA 134 with Ethanol/Tween): 73.19 µg/g | Calculated RPL554 solubilised (%) ([4]; in HFA 227): BLQ | Calculated Solubilised RPL554 μg per 50 μL actuation ([4]; in HFA 227): BLQ | Solubility RPL554 (μg/g) ([4]; in HFA 227): BLQ | Measured Blend Content (% Theoretical) [5]: 73.50 % Theoretical | **Adjusted RPL554 Content per capsule [5]: 121.95 µg | †Measured Mass of 1% w/w Blend Delivered per capsule [6]: 19.78 mg | ††RPL554 Emitted (μg) per capsule (B) [6]: 79.35 µg | Calculated RPL554 Content (μg) per capsule (A) [6]: 120.61 µg
